Measured values published in patent US20250326748A1, “COMPOUNDS AND METHODS FOR MODULATING SPLICING” (REMIX THERAPEUTICS INC., priority 2022, published 2025).
Counter-ions that a name gives are not always drawn.

Key:
Format in all cases: cell-based, human
Target C mRNA = assay: Splicing RT-qPCR panel, Target C canonical junction (CJ) mRNA; conditions: Homo sapiens, read-out: Target C CJ (decrease in CJ mRNA levels, IC50)
Outline: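 A673 cells (DMEM, 10% FBS) or K562 cells (IMDM, 10% FBS) treated 24 h at 37 °C with an 11-point 3-fold dilution, top 10 uM, DMSO ≤0.25%. Canonical-junction mRNA quantified in lysates by RT-qPCR, normalised to GAPDH, GUSB or PPIA and to DMSO (2^−ΔΔCt), then converted to % response.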

HiBiT-tagged MYB protein = assay: HiBiT protein abundance assay, MYB (K562 HiBiT knock-in); conditions: HiBiT knock-in cells, 24 hours
Description: (§1) Compounds described herein were used to screen for effects on quantitative protein abundance using a HiBit assay system (Promega). Quantitative protein abundance was determined by measuring the protein levels of HiBit-tagged protein targets expressed in cell culture via luminescence using the Nano-Glo HiBiT Lytic Detection System, which uses a split complementation assay format to reconstitute NanoBiT enzyme to generate a luminescent signal. A protein abundance assay was developed such that endogenous protein targets could be modified with the HiBiT peptide tag and their abundance could be assessed after compound treatment. Briefly, K562 cell lines containing a HiBiT-modification were treated with various compounds described herein (e.g., compounds of Formulas (I), or (II)). After treatment for 24 hours, the protein abundance of a specific target was determined by measuring luminescence.
(§2) • Promega Nano-Glo HiBiT Lytic Detection System (cat #N3030) • Corning 384-well TC-treated microplates (cat #3570)
(§3) Cells were maintained in IMDM with 10% FBS. Before the assay, cells were diluted with […] growth media (IMDM+1% FBS media) and were seeded in a 384-well plate at a density of 10000 cells/well (for each cell line listed in Table 6). Each compound was prepared as a 10-point 3-old serial dilution in DMSO with the top dose at a final concentration of 10 μM in the well. Unmodified K562 cells were added at the previously specified density with DMSO to serve as an assay baseline and positive control (PC) and DMSO only with the respective modified cell lines was added to the negative control (NC) columns. Final DMSO concentration was kept at or below 0.25%. Treated cell plates were placed in an incubator at 37° C. with 5% CO2 for 24 hours. After 24 hours, 25 μL of Complete HiBit Lytic reagent was added to each well at room temperature (e.g. one plate requiring 10 ml Lytic Buffer, 100 μL LgBiT Protein, 200 μL Lytic Substrate), shaken for 5 minutes at 600 RPM, then left to sit for 10 minutes for signal to stabilize before reading on a Spark Cyto plate reader (Tecan) with a 500 ms measurement time.
(§4) To determine compound effects on protein abundance of each target in Table 6, the percent response for each respective cell line was calculated at each compound concentration as follows:
(§5) For the normalized response at each concentration, a four-parameter logistical regression was fit to the data and the response was interpolated at the 50% value to determine a concentration for protein abundance at 50% (IC50) the untreated control.

HiBiT-tagged HTT protein = assay: HiBiT protein abundance assay, HTT (K562 HiBiT knock-in); conditions: HiBiT knock-in cells, 24 hours
Description: as §1, §2, §3, §4, §5

| IC50 (Target C mRNA) [nM] | IC50 (HiBiT-tagged MYB protein) [nM] | IC50 (HiBiT-tagged HTT protein) [nM] | Compound |
| --- | --- | --- | --- |
| 100 to 1000 | < 100 | 100 to 1000 | Cc1c(O)c(-c2cc(Cl)c3cc(N4CCC(N(C)C)C4)cnc3n2)cc2cn(C)nc12 (centres unmarked) [Compound 143, 5-{4-chloro-6-[3-(dimethylamino)357pyrrolidine-1-yl]-1,8-naphthyridin-2-yl}-2,7-dimethylindazol-6-ol] |
| 1000 to 10000 | 100 to 1000 | 100 to 1000 | Cn1cc2cc(-c3ccc4cc(NC5CCNCC5)cnc4n3)c(O)c(F)c2n1 [Compound 285] |
| 1000 to 10000 | 100 to 1000 | 1000 to 10000 | C[C@@H]1CN(c2cnc3nc(-c4cc5cn(C)nc5cc4O)ccc3c2)C[C@H](C)N1 [Compound 343] |
| 100 to 1000 | < 100 | < 100 | CCNC1CCN(c2cnc3nc(-c4cc5cn(C)nc5c(C)c4O)ccc3c2)C1 (centres unmarked) [Compound 122, 5-{6-[3-(ethylamino)pyrrolidin-1-yl]-1,8-naphthyridin-2-yl}-2,7-dimethylindazol-6-ol] |
| 100 to 1000 | < 100 | < 100 | CCN[C@H]1CCN(c2cnc3nc(-c4cc5cn(C)nc5c(C)c4O)ccc3c2)C1 [Compound 123] |
| > 10000 | 1000 to 10000 | 1000 to 10000 | Cc1cn2nc(-c3cnc4nc(C5CCNCC5)ccc4c3)cc(C)c2n1 [Compound 115, 6-(2,8-dimethylimidazo[1,2-b]pyridazin-6-yl)-2-(piperidin-4-yl)-1,8-naphthyridine] |
| 100 to 1000 | < 100 | < 100 | CCNC1CCN(c2cnc3nc(-c4cc5cn(C)nc5c(F)c4O)ccc3c2)C1 (centres unmarked) [Compound 106, 5-{6-[3-(ethylamino)pyrrolidin-1-yl]-1,8-naphthyridin-2-yl}-7-fluoro-2-methylindazol-6-ol] |
| > 10000 | 1000 to 10000 | 1000 to 10000 | C[C@@H]1CN(c2cnc3nc(-c4ccc5nn(C)cc5c4)cc(Cl)c3c2)C[C@H](C)N1 [Compound 320, 4-chloro-6-[(3R,5S)-3,5-dimethylpiperazin-1-yl]-2-(2-methylindazol-5-yl)-1,8-naphthyridine] |
| 1000 to 10000 | < 100 | 100 to 1000 | Cc1cn2cc(-c3cc(Cl)c4cc(N5C[C@H](C)N[C@@H](C)C5)cnc4n3)cc(F)c2n1 [Compound 298] |
| < 100 | < 100 | < 100 | CCN[C@@H]1CCN(c2cnc3nc(-c4cc5cn(C)nc5cc4O)cc(Cl)c3c2)C1 [Compound 317] |
| 100 to 1000 | < 100 | 100 to 1000 | CN[C@@H]1CN(c2cnc3nc(-c4cc5cn(C)nc5c(C)c4O)ccc3c2)C[C@@H]1F [Compound 132, 5-{6-[(3S,4R)-3-fluoro-4-(methylamino)pyrrolidin-1-yl]-1,8-naphthyridin-2-yl}-2,7-dimethylindazol-6-ol] |
| 100 to 1000 | 100 to 1000 | 100 to 1000 | Cc1cn2nc(-c3ccc4cc(N5C[C@@H](C)N[C@@H](C)C5)cnc4n3)cc(C)c2n1 [Compound 330] |
| 100 to 1000 | 100 to 1000 | 100 to 1000 | CN[C@H]1CN(c2cnc3nc(-c4cc5cn(C)nc5c(C)c4O)ccc3c2)C[C@H]1F [Compound 129, 5-{6-[(3R,4S)-3-fluoro-4-(methylamino)pyrrolidin-1-yl]-1,8-naphthyridin-2-yl}-2,7-dimethylindazol-6-ol] |
| 1000 to 10000 | < 100 | 100 to 1000 | CN(c1cnc2nc(-c3cc4cn(C)nc4c(F)c3O)cc(Cl)c2c1)[C@@H]1CCNC1 [Compound 276] |
| 1000 to 10000 | < 100 | 100 to 1000 | CN(c1cnc2nc(-c3cc4cn(C)nc4c(F)c3O)cc(Cl)c2c1)[C@H]1CCNC1 [Compound 275] |
| – | < 100 | 100 to 1000 | CNC1CCN(c2cnc3nc(-c4cc5cn(C)nc5c(C)c4O)ncc3c2)C1 (centres unmarked) [Compound 104, 2,7-dimethyl-5-{6-[3-(methylamino)pyrrolidin-1-yl]pyrido[2,3-d]pyrimidin-2-yl}indazol-6-ol] |
| 1000 to 10000 | < 100 | 100 to 1000 | CN[C@@H]1CCN(c2cnc3nc(-c4cc(C)c5nc(C)cn5n4)ccc3c2)C1 [Compound 117] |
| > 10000 | 100 to 1000 | 100 to 1000 | Cc1cn2cc(-c3cc(Cl)c4cc(N5C[C@@H](C)N[C@@H](C)C5)cnc4n3)cc(F)c2n1 [Compound 297] |
| 1000 to 10000 | < 100 | 100 to 1000 | Cc1c(O)c(-c2cc(Cl)c3cc(N4CCNC5(CC5)C4)cnc3n2)cc2cn(C)nc12 [Compound 381] |
| 100 to 1000 | < 100 | < 100 | Cc1c(O)c(-c2ccc3cc(N4CC[C@@H](NCC5CC5)C4)cnc3n2)cc2cn(C)nc12 [Compound 118] |
| < 100 | < 100 | < 100 | C[C@H]1CN(c2cnc3nc(-c4cc5cn(C)nc5c(F)c4O)cc(Cl)c3c2)C[C@H](C)N1 [Compound 280] |
| 1000 to 10000 | 100 to 1000 | 100 to 1000 | CCN[C@H]1CCN(c2cnc3nc(-c4cc5cn(C)nc5cc4O)ccc3c2)C1 [Compound 311, 5-{6-[(3S)-3-(ethylamino)pyrrolidin-1-yl]-1,8-naphthyridin-2-yl}-2-methylindazol-6-ol hydrochloride] |
| 1000 to 10000 | < 100 | < 100 | CN[C@H]1CCN(c2cnc3nc(-c4cc(C)c5nc(C)cn5n4)cc(Cl)c3c2)C1 [Compound 340] |
| 1000 to 10000 | 100 to 1000 | 100 to 1000 | Cn1cc2cc(-c3ccc4cc(N5CC[C@H](NCC6CC6)C5)cnc4n3)c(O)cc2n1 [Compound 314] |
| 100 to 1000 | < 100 | < 100 | CN[C@@H]1CCN(c2cnc3nc(-c4cc(C)c5nc(C)cn5n4)cc(Cl)c3c2)C1 [Compound 341] |
| 1000 to 10000 | < 100 | 100 to 1000 | Cc1c(O)c(-c2cc(Cl)c3cc(NC4CCNC4)cnc3n2)cc2cn(C)nc12 (centres unmarked) [Compound 146, 5-[4-chloro-6-(359pyrrolidine-3-ylamino)-1,8-naphthyridin-2-yl]-2,7-dimethylindazol-6-ol] |
| 100 to 1000 | < 100 | < 100 | Cn1cc2cc(-c3ccc4cc(N5CC[C@@H](NCC6CC6)C5)cnc4n3)c(O)c(F)c2n1 [Compound 135, 5-{6-[(3R)-3-[(cyclopropylmethyl)amino]330pyrrolidine-1-yl]-1,8-naphthyridin-2-yl}-7-fluoro-2-methylindazol-6-ol] |
| 100 to 1000 | < 100 | < 100 | CN[C@H]1CCN(c2cnc3nc(-c4cc5cn(C)nc5c(C)c4O)cc(Cl)c3c2)C1.Cl [Compound 287] |
| > 10000 | 100 to 1000 | 1000 to 10000 | CN1CCC[C@H]2CN(c3cnc4nc(-c5cc6cn(C)nc6c(F)c5O)cc(Cl)c4c3)C[C@H]21 [Compound 304] |
| 1000 to 10000 | < 100 | 100 to 1000 | Cc1c(O)c(-c2ccc3cc(N4CCC(N(C)C)CC4)cnc3n2)cc2cn(C)nc12 [Compound 138, 5-{6-[4-(dimethylamino)piperidin-1-yl]-1,8-naphthyridin-2-yl}-2,7-dimethylindazol-6-ol] |

| Compound | IC50 (Target C mRNA) [nM] | IC50 (HiBiT-tagged MYB protein) [nM] | IC50 (HiBiT-tagged HTT protein) [nM] |
| --- | --- | --- | --- |
| CN(c1cnc2nc(-c3cc4cn(C)nc4c(F)c3O)ccc2c1)C1CCNCC1 [Compound 284] | > 10000 | 100 to 1000 | 1000 to 10000 |
